Values of other authors as cited in publication PMC4387274, “A phase 1 dose escalation study of BI 831266, an inhibitor of Aurora kinase B, in patients with advanced solid tumors” (Investigational New Drugs, 2014).

Legend:
acute myeloid leukemia = test system: acute myeloid leukemia; parameters: method as in PMID 23605952; details: compared with low-dose cytosine arabinoside control arm
[1] = 121 patients with solid malignancies

Row | Structure (SMILES) | Safety in ongoing phase 1 study (solid malignancies; 105 mg in Schedule A) | Objective responses (solid malignancies; [1]) | Patients achieving SD (solid malignancies; [1]) | Objective clinical response rate (acute myeloid leukemia)
1 | CC(C)NC(=O)[C@H]1CCC[C@H]1Nc1nc(Nc2ccc(C(=O)N(C)C3CCN(C)CC3)cc2)ncc1C(F)(F)F [BI 811283] | no significant safety issues | no objective responses | a third of the patients | 
2 | CCN(CCCOc1ccc2c(Nc3cc(CC(=O)Nc4cccc(F)c4)n[nH]3)ncnc2c1)CCOP(=O)(O)O [barasertib] |  |  |  | superior objective clinical response rate
